Assay results taken from paper PMC7535926, “Serine phosphorylation regulates the P-type potassium pump KdpFABC” (eLife, 2020).

Biological target: T1, KdpFABC (WT) (Escherichia coli, UniProt P03960)
T1 construct: gene kdpB; full-length kdpFABC operon on plasmid pSD107 (native promoter), 8x His tag at C-terminus of KdpC; expressed in E. coli TK2499; purified in decyl maltoside; KdpB Ser162 phosphate removed with lambda protein phosphatase; Potassium-transporting ATPase KdpC subunit; Potassium-transporting ATPase KdpF subunit
Experiment: coupled-enzyme ATPase assay (pyruvate kinase / lactate dehydrogenase)
Format: biochemical

T1 sequence (P03960 whole entry): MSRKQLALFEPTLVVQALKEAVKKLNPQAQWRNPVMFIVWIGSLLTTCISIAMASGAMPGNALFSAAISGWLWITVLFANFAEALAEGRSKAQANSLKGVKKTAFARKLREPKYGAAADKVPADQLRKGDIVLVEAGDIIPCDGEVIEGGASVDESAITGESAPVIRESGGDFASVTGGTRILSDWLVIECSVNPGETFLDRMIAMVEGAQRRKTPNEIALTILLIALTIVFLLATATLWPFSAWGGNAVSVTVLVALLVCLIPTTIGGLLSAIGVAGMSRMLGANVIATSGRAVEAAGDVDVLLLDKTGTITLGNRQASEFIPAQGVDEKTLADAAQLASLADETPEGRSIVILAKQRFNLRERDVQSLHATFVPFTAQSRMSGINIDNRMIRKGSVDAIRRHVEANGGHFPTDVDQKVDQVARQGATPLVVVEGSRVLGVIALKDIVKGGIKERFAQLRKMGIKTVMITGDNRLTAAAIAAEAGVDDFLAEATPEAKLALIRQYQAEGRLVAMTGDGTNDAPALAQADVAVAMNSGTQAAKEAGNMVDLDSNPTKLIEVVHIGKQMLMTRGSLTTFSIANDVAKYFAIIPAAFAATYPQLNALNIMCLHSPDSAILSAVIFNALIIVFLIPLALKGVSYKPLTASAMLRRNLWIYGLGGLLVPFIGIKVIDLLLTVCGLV
T1 sequence (P03959 whole entry partner): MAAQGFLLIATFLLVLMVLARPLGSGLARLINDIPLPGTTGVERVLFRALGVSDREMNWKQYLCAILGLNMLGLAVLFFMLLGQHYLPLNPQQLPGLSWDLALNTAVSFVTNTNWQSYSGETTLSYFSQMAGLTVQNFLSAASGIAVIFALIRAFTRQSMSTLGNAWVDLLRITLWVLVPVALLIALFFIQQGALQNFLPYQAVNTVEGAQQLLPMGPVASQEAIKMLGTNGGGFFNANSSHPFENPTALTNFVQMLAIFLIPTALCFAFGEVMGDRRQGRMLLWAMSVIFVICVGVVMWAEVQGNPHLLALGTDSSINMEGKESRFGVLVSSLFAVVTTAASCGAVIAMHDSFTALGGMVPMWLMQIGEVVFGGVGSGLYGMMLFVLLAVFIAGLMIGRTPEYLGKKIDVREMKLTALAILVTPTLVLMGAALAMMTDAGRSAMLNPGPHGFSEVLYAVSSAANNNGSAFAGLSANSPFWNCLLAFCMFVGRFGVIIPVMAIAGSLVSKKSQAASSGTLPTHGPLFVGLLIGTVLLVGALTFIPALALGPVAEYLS
T1 sequence (P03961 whole entry partner): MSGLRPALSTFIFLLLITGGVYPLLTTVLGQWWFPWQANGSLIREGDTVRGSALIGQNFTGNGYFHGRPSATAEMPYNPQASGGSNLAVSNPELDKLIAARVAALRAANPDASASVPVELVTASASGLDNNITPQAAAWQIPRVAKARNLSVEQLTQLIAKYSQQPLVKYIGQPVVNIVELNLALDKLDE
T1 sequence (P36937 whole entry partner): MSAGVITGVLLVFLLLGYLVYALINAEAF

## [O]=[V]([OH])([OH])[OH] [orthovanadate]
  IC50: 8.4 µM
